Structures are written as SMILES.

Assay [1] has as its target trypanothione reductase (TR) from T. cruzi (Trypanosoma cruzi, UniProt P28593). Nature of the assay: Trypanothione reductase inhibition. The format is biochemical. The conditions noted are these: preliminary, unpublished data.
Assay [2] addresses lipoamide dehydrogenase (LipDH) also from T. cruzi (Trypanosoma cruzi, UniProt P90597). Briefly: Lipoamide dehydrogenase inhibition. In kind it is biochemical. The conditions noted are these: preliminary, unpublished data.

trypanothione reductase (TR) from T. cruzi, sequence (P28593 whole entry): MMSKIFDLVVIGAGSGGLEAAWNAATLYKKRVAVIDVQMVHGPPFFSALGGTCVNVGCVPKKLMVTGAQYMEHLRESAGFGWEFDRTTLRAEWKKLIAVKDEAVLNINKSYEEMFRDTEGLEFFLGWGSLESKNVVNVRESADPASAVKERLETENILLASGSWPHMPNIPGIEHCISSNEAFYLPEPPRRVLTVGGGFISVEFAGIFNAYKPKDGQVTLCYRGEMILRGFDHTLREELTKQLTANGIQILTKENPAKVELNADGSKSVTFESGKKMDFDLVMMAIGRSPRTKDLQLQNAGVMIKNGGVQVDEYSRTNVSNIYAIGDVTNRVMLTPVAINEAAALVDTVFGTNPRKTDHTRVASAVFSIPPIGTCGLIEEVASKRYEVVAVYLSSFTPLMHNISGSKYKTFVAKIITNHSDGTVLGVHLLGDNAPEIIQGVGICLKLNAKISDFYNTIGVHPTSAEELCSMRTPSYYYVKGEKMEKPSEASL
lipoamide dehydrogenase (LipDH) also from T. cruzi, sequence (P90597 whole entry): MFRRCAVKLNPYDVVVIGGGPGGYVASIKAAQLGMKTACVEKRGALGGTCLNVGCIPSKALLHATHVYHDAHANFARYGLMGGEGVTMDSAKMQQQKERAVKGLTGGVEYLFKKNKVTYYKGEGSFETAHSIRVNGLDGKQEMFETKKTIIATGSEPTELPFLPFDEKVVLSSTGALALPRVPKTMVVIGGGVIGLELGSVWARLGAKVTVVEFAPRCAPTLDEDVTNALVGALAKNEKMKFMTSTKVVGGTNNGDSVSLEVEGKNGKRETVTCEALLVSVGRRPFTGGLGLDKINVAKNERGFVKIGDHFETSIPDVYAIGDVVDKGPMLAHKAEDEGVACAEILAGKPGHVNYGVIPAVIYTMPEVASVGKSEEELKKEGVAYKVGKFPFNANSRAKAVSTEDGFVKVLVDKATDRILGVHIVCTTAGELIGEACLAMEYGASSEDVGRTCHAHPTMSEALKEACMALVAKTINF

Consider `CN(C)CC1CCC(CN(C)C)C1=O` (stereo not shown) [NC884], for which, in assay [1], the “inhibition of trypanothione reductase” value is reported as “time-dependent irreversible inhibition”. Further, the “inhibition of lipoamide dehydrogenase” value in assay [2] is listed as “time-dependent irreversible inhibition”.

Consider `CN(C)CC1CCCC(CN(C)C)C1=O` (stereo not shown) [NC901], for which, in assay [1], the “inhibition of trypanothione reductase” value is “time-dependent irreversible inhibition”. The “inhibition of lipoamide dehydrogenase” value in assay [2] is given as “time-dependent irreversible inhibition”.

Source of the values: patent US9669016B2, “Antiparasitic effect of Bis[3,5-Bis(Benzylidene)-4-Oxo-1-Piperidinyl]amide Derivatives” (priority 2014, dated 2017).
